Values quoted from earlier work in US12064400B1 (priority 2022, dated 2024).

Tests used:
[1] = in vivo
[2] = in vivo; remark: listed apart in the source

SMILES | time in which a human body may absorb peak levels [1] | higher risk for developing a bleed when taking naproxen [2] | people in whom common and serious side effects may occur [2]
COc1ccc2cc([C@H](C)C(=O)O)ccc2c1 [naproxen] | two to four | ten | three to nine
COc1ccc2cc([C@H](C)C(=O)O)ccc2c1 [naproxen sodium] | one to two | – | –
